Test results taken from ChEMBL document CHEMBL1201861, “Genomics of Drug Sensitity in Cancer screening data, Wellcome Trust Sanger Institute”.

Legend:
Assay in all cases: cells
Type in all cases: functional, cell-based
Settings in all cases: Homo sapiens
[1] = system: D-502MG
Description: SANGER: Inhibition of human D-502MG cell growth in a cell viability assay.

[2] = system: DJM-1;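 note: growth inhibition of human DJM-1 cells, read out by a cell viability assay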
Description: SANGER: Inhibition of human DJM-1 cell growth in a cell viability assay.

[3] = system: EKVX;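 note: growth inhibition of human EKVX cells, read out with a cell viability assay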
Description: SANGER: Inhibition of human EKVX cell growth in a cell viability assay.

[4] = system: ES4;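 note: growth inhibition of human ES4 cells, read out by a cell viability assay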
Description: SANGER: Inhibition of human ES4 cell growth in a cell viability assay.

[5] = system: ES5;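 note: growth inhibition of human ES5 cells, read out by a cell viability assay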
Description: SANGER: Inhibition of human ES5 cell growth in a cell viability assay.

[6] = system: ES6;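 note: growth inhibition of human ES6 cells, read out with a cell viability assay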
Description: SANGER: Inhibition of human ES6 cell growth in a cell viability assay.

[7] = system: EW-13;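 note: growth inhibition of EW-13 cells, read out with a cell viability assay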
Description: SANGER: Inhibition of human EW-13 cell growth in a cell viability assay.

[8] = system: GI-1;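 note: growth inhibition of human GI-1 cells, measured with a cell viability readout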
Description: SANGER: Inhibition of human GI-1 cell growth in a cell viability assay.

[9] = system: HAL-01;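 note: growth inhibition of human HAL-01 cells, read out with a cell viability assay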
Description: SANGER: Inhibition of human HAL-01 cell growth in a cell viability assay.

[10] = system: HCC1187;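 note: growth inhibition of HCC1187 cells, read out with a cell viability assay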
Description: SANGER: Inhibition of human HCC1187 cell growth in a cell viability assay.

[11] = system: HCC2218;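 note: cell viability assay read-out, with IC50 given as the concentration that inhibits growth of the cell line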
Description: SANGER: Inhibition of human HCC2218 cell growth in a cell viability assay.

[12] = system: HDLM-2;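 note: cell viability assay measuring suppression of HDLM-2 proliferation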
Description: SANGER: Inhibition of human HDLM-2 cell growth in a cell viability assay.

[13] = system: HOP-62;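 note: cell growth inhibition determined with a viability assay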
Description: SANGER: Inhibition of human HOP-62 cell growth in a cell viability assay.

[14] = system: JVM-2;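 note: growth inhibition of JVM-2 cells determined by a cell viability assay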
Description: SANGER: Inhibition of human JVM-2 cell growth in a cell viability assay.

[15] = system: JVM-3;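 note: growth inhibition of human JVM-3 cells, read out with a cell viability assay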
Description: SANGER: Inhibition of human JVM-3 cell growth in a cell viability assay.

[16] = system: KARPAS-299
Description: SANGER: Inhibition of human KARPAS-299 cell growth in a cell viability assay.

[17] = system: KARPAS-45;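 note: inhibition of cell line growth, read out through a viability assay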
Description: SANGER: Inhibition of human KARPAS-45 cell growth in a cell viability assay.

[18] = system: KG-1;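 note: growth inhibition of KG-1 cells, read out by a cell viability assay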
Description: SANGER: Inhibition of human KG-1 cell growth in a cell viability assay.

[19] = system: KM-H2;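 note: growth inhibition of KM-H2 cells, read out by a cell viability assay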
Description: SANGER: Inhibition of human KM-H2 cell growth in a cell viability assay.

[20] = system: KNS-81-FD;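 note: growth inhibition of KNS-81-FD cells, read out with a cell viability assay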
Description: SANGER: Inhibition of human KNS-81-FD cell growth in a cell viability assay.

[21] = system: LB1047-RCC;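 note: inhibition of cell growth, determined with a cell viability assay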
Description: SANGER: Inhibition of human LB1047-RCC cell growth in a cell viability assay.

[22] = system: LB2518-MEL;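 note: growth inhibition of human LB2518-MEL cells, measured with a cell viability assay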
Description: SANGER: Inhibition of human LB2518-MEL cell growth in a cell viability assay.

[23] = system: LC-1F;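 note: growth inhibition of human LC-1F cells, read out with a cell viability assay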
Description: SANGER: Inhibition of human LC-1F cell growth in a cell viability assay.

[24] = system: MC-CAR;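 note: growth inhibition of the human MC-CAR cell line, read out by a cell viability assay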
Description: SANGER: Inhibition of human MC-CAR cell growth in a cell viability assay.

[25] = system: MDA-MB-134-VI
Description: SANGER: Inhibition of human MDA-MB-134-VI cell growth in a cell viability assay.

[26] = system: MHH-PREB-1;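 note: cell viability assay measuring inhibition of proliferation of human MHH-PREB-1 cells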
Description: SANGER: Inhibition of human MHH-PREB-1 cell growth in a cell viability assay.

[27] = system: MMAC-SF;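 note: growth inhibition of human MMAC-SF cells, read out with a cell viability assay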
Description: SANGER: Inhibition of human MMAC-SF cell growth in a cell viability assay.

[28] = system: MOLT-16;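 note: growth inhibition of human MOLT-16 cells, read out with a cell viability assay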
Description: SANGER: Inhibition of human MOLT-16 cell growth in a cell viability assay.

[29] = system: NB13;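 note: cell viability readout measuring growth inhibition of human NB13 cells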
Description: SANGER: Inhibition of human NB13 cell growth in a cell viability assay.

[30] = system: NB69;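 note: growth inhibition of NB69 cells, determined by a cell viability assay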
Description: SANGER: Inhibition of human NB69 cell growth in a cell viability assay.

[31] = system: NCI-H1304;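 note: growth inhibition of the cancer cell line, measured in a cell viability assay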
Description: SANGER: Inhibition of human NCI-H1304 cell growth in a cell viability assay.

[32] = system: NCI-H1395;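 note: cell viability assay read-out quantifying reduced proliferation of human NCI-H1395 cells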
Description: SANGER: Inhibition of human NCI-H1395 cell growth in a cell viability assay.

[33] = system: NCI-H1581;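 note: cell growth inhibition read out by a viability assay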
Description: SANGER: Inhibition of human NCI-H1581 cell growth in a cell viability assay.

[34] = system: NCI-H1650;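 note: growth inhibition of human NCI-H1650 cells measured by a cell viability assay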
Description: SANGER: Inhibition of human NCI-H1650 cell growth in a cell viability assay.

[35] = system: NCI-H1838;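 note: growth inhibition of NCI-H1838 cells, determined with a cell viability readout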
Description: SANGER: Inhibition of human NCI-H1838 cell growth in a cell viability assay.

[36] = system: NCI-H2196;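 note: cell viability assay used as the readout of growth inhibition in NCI-H2196 cells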
Description: SANGER: Inhibition of human NCI-H2196 cell growth in a cell viability assay.

[37] = system: OMC-1;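 note: growth inhibition of the OMC-1 cell line, measured by a cell viability assay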
Description: SANGER: Inhibition of human OMC-1 cell growth in a cell viability assay.

[38] = system: RCC10RGB;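 note: growth inhibition of human RCC10RGB cells, read out by a cell viability assay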
Description: SANGER: Inhibition of human RCC10RGB cell growth in a cell viability assay.

[39] = system: RPMI-8226
Description: SANGER: Inhibition of human RPMI-8226 cell growth in a cell viability assay.

[40] = system: RPMI-8866
Description: SANGER: Inhibition of human RPMI-8866 cell growth in a cell viability assay.

[41] = system: Ramos-2G6-4C10;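 note: growth inhibition of the cell line, measured by a cell viability read-out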
Description: SANGER: Inhibition of human Ramos-2G6-4C10 cell growth in a cell viability assay.

[42] = system: SCC-3;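 note: cell viability assay measuring inhibition of SCC-3 cell growth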
Description: SANGER: Inhibition of human SCC-3 cell growth in a cell viability assay.

[43] = system: SCH;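 note: growth inhibition of human SCH cells, read out in a cell viability assay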
Description: SANGER: Inhibition of human SCH cell growth in a cell viability assay.

[44] = system: SF-539;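 note: Read-out is a cell viability assay, with IC50 reflecting inhibition of cell growth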
Description: SANGER: Inhibition of human SF539 cell growth in a cell viability assay.

[45] = system: SK-LMS-1;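 note: growth inhibition of human SK-LMS-1 cells, read out with a cell viability assay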
Description: SANGER: Inhibition of human SK-LMS-1 cell growth in a cell viability assay.

[46] = system: SK-MEL-1;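 note: growth inhibition of human SK-MEL-1 cells, read out by a cell viability assay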
Description: SANGER: Inhibition of human SK-MEL-1 cell growth in a cell viability assay.

[47] = system: SK-N-DZ;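 note: growth inhibition of the cancer cell line, read out through a viability assay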
Description: SANGER: Inhibition of human SK-N-DZ cell growth in a cell viability assay.

[48] = system: SK-NEP-1;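 note: growth inhibition of human SK-NEP-1 cells, read out by a cell viability assay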
Description: SANGER: Inhibition of human SK-NEP-1 cell growth in a cell viability assay.

[49] = system: SK-UT-1;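 note: growth inhibition of SK-UT-1 cells, measured by a cell viability assay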
Description: SANGER: Inhibition of human SK-UT-1 cell growth in a cell viability assay.

[50] = system: 697
Description: SANGER: Inhibition of human 697 cell growth in a cell viability assay.

[51] = system: A4-Fuk;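 note: growth inhibition of A4-Fuk cells, read out by a cell viability assay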
Description: SANGER: Inhibition of human A4-Fuk cell growth in a cell viability assay.

[52] = system: A498;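 note: growth inhibition of human A498 cells, read out with a cell viability assay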
Description: SANGER: Inhibition of human A498 cell growth in a cell viability assay.

[53] = system: ATN-1;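 note: growth inhibition of human ATN-1 cells, read out with a cell viability assay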
Description: SANGER: Inhibition of human ATN-1 cell growth in a cell viability assay.

[54] = system: BB65-RCC;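 note: growth inhibition of the cell line, measured with a cell viability assay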
Description: SANGER: Inhibition of human BB65-RCC cell growth in a cell viability assay.

[55] = system: BV-173
Description: SANGER: Inhibition of human BV-173 cell growth in a cell viability assay.

[56] = system: Becker;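 note: growth inhibition of Becker cells, read out with a cell viability assay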
Description: SANGER: Inhibition of human Becker cell growth in a cell viability assay.

[57] = system: TE-8
Description: SANGER: Inhibition of human TE-8 cell growth in a cell viability assay.

[58] = system: TGBC1TKB
Description: SANGER: Inhibition of human TGBC1TKB cell growth in a cell viability assay.

[59] = system: TGBC24TKB
Description: SANGER: Inhibition of human TGBC24TKB cell growth in a cell viability assay.

CCNc1cc(N[C@H]2CC[C@@H](O)CC2)nc(Nc2ccc3c(ccn3Cc3ccccc3)c2)n1
IC50 [1]: > 5120 nM | IC50 [2]: > 5120 nM | IC50 [3]: > 5120 nM | IC50 [4]: > 5120 nM | IC50 [5]: > 5120 nM | IC50 [6]: > 5120 nM | IC50 [7]: > 5120 nM | IC50 [8]: 2950 nM | IC50 [9]: > 5120 nM | IC50 [10]: > 5120 nM | IC50 [11]: > 5120 nM | IC50 [12]: > 5120 nM | IC50 [13]: > 5120 nM | IC50 [14]: > 5120 nM | IC50 [15]: > 5120 nM | IC50 [16]: > 5120 nM | IC50 [17]: > 5120 nM | IC50 [18]: > 5120 nM | IC50 [19]: > 5120 nM | IC50 [20]: > 5120 nM | IC50 [21]: > 5120 nM | IC50 [22]: > 5120 nM | IC50 [23]: > 5120 nM | IC50 [24]: > 5120 nM | IC50 [25]: > 5120 nM | IC50 [26]: > 5120 nM | IC50 [27]: > 5120 nM | IC50 [28]: > 5120 nM | IC50 [29]: > 5120 nM | IC50 [30]: > 5120 nM | IC50 [31]: > 5120 nM | IC50 [32]: > 5120 nM | IC50 [33]: > 5120 nM | IC50 [34]: > 5120 nM | IC50 [35]: > 5120 nM | IC50 [36]: > 5120 nM | IC50 [37]: > 5120 nM | IC50 [38]: > 5120 nM | IC50 [39]: > 5120 nM | IC50 [40]: > 5120 nM | IC50 [41]: > 5120 nM | IC50 [42]: > 5120 nM | IC50 [43]: > 5120 nM | IC50 [44]: > 5120 nM | IC50 [45]: > 5120 nM | IC50 [46]: > 5120 nM | IC50 [47]: > 5120 nM | IC50 [48]: > 5120 nM | IC50 [49]: > 5120 nM | IC50 [50]: 4170 nM | IC50 [51]: > 5120 nM | IC50 [52]: > 5120 nM | IC50 [53]: > 5120 nM | IC50 [54]: > 5120 nM | IC50 [55]: > 5120 nM | IC50 [56]: > 5120 nM | IC50 [57]: > 5120 nM | IC50 [58]: > 5120 nM | IC50 [59]: > 5120 nM

COc1cc(C)c(Sc2cnc(NC(=O)c3ccc(CNC(C)C(C)(C)C)cc3)s2)cc1C(=O)N1CCN(C(C)=O)CC1 (stereo not given)
IC50 [1]: > 10200 nM | IC50 [2]: > 10200 nM | IC50 [3]: > 10200 nM | IC50 [4]: 6560 nM | IC50 [5]: > 10200 nM | IC50 [6]: 2120 nM | IC50 [7]: > 10200 nM | IC50 [8]: > 10200 nM | IC50 [9]: > 10200 nM | IC50 [10]: > 10200 nM | IC50 [11]: > 10200 nM | IC50 [12]: > 10200 nM | IC50 [13]: > 10200 nM | IC50 [14]: > 10200 nM | IC50 [15]: > 10200 nM | IC50 [16]: > 10200 nM | IC50 [17]: > 10200 nM | IC50 [18]: > 10200 nM | IC50 [19]: > 10200 nM | IC50 [20]: > 10200 nM | IC50 [21]: > 10200 nM | IC50 [22]: > 10200 nM | IC50 [23]: > 10200 nM | IC50 [24]: > 10200 nM | IC50 [25]: > 10200 nM | IC50 [26]: > 10200 nM | IC50 [27]: > 10200 nM | IC50 [28]: 4750 nM | IC50 [29]: > 10200 nM | IC50 [30]: 6660 nM | IC50 [31]: > 10200 nM | IC50 [32]: > 10200 nM | IC50 [33]: > 10200 nM | IC50 [34]: > 10200 nM | IC50 [35]: > 10200 nM | IC50 [36]: > 10200 nM | IC50 [37]: > 10200 nM | IC50 [38]: > 10200 nM | IC50 [39]: > 10200 nM | IC50 [40]: > 10200 nM | IC50 [41]: > 10200 nM | IC50 [42]: > 10200 nM | IC50 [43]: > 10200 nM | IC50 [44]: > 10200 nM | IC50 [45]: > 10200 nM | IC50 [46]: > 10200 nM | IC50 [47]: > 10200 nM | IC50 [48]: > 10200 nM | IC50 [49]: > 10200 nM | IC50 [50]: 6660 nM | IC50 [51]: 1620 nM | IC50 [52]: > 10200 nM | IC50 [53]: 9510 nM | IC50 [54]: > 10200 nM | IC50 [55]: > 10200 nM | IC50 [56]: > 10200 nM | IC50 [57]: 6440 nM | IC50 [58]: > 10200 nM | IC50 [59]: > 10200 nM

Cc1n[nH]c2ccc(-c3cncc(OC[C@@H](N)Cc4c[nH]c5ccccc45)c3)cc12 [A-443654]
IC50 [1]: > 1020 nM | IC50 [2]: 331 nM | IC50 [3]: > 1020 nM | IC50 [4]: 37.7 nM | IC50 [5]: > 1020 nM | IC50 [6]: 91.5 nM | IC50 [7]: > 1020 nM | IC50 [8]: 187 nM | IC50 [9]: > 1020 nM | IC50 [10]: > 1020 nM | IC50 [11]: 266 nM | IC50 [12]: > 1020 nM | IC50 [13]: 140 nM | IC50 [14]: > 1020 nM | IC50 [15]: > 1020 nM | IC50 [16]: 473 nM | IC50 [17]: 296 nM | IC50 [18]: > 1020 nM | IC50 [19]: > 1020 nM | IC50 [20]: > 1020 nM | IC50 [21]: 87.2 nM | IC50 [22]: 397 nM | IC50 [23]: 181 nM | IC50 [24]: > 1020 nM | IC50 [25]: 489 nM | IC50 [26]: 271 nM | IC50 [27]: > 1020 nM | IC50 [28]: 83.7 nM | IC50 [29]: 332 nM | IC50 [30]: 227 nM | IC50 [31]: 163 nM | IC50 [32]: > 1020 nM | IC50 [33]: 606 nM | IC50 [34]: > 1020 nM | IC50 [35]: > 1020 nM | IC50 [36]: 648 nM | IC50 [37]: 191 nM | IC50 [38]: > 1020 nM | IC50 [39]: 670 nM | IC50 [40]: > 1020 nM | IC50 [41]: 170 nM | IC50 [42]: 620 nM | IC50 [43]: > 1020 nM | IC50 [44]: > 1020 nM | IC50 [45]: 276 nM | IC50 [46]: > 1020 nM | IC50 [47]: > 1020 nM | IC50 [48]: 519 nM | IC50 [49]: 81.4 nM | IC50 [50]: 32.8 nM | IC50 [51]: 103 nM | IC50 [52]: > 1020 nM | IC50 [53]: > 1020 nM | IC50 [54]: 597 nM | IC50 [55]: 269 nM | IC50 [56]: 303 nM | IC50 [57]: 137 nM | IC50 [58]: 120 nM | IC50 [59]: 810 nM

Cc1[nH]c(/C=C2\C(=O)Nc3ccc(S(=O)(=O)Cc4c(Cl)cccc4Cl)cc32)c(C)c1C(=O)N1CCC[C@@H]1CN1CCCC1 [PHA-665752]
IC50 [1]: > 2000 nM | IC50 [2]: > 2000 nM | IC50 [3]: > 2000 nM | IC50 [4]: > 2000 nM | IC50 [5]: > 2000 nM | IC50 [6]: > 2000 nM | IC50 [7]: > 2000 nM | IC50 [8]: > 2000 nM | IC50 [9]: > 2000 nM | IC50 [10]: > 2000 nM | IC50 [11]: > 2000 nM | IC50 [12]: > 2000 nM | IC50 [13]: > 2000 nM | IC50 [14]: > 2000 nM | IC50 [15]: > 2000 nM | IC50 [16]: > 2000 nM | IC50 [17]: > 2000 nM | IC50 [18]: > 2000 nM | IC50 [19]: > 2000 nM | IC50 [20]: > 2000 nM | IC50 [21]: > 2000 nM | IC50 [22]: > 2000 nM | IC50 [23]: > 2000 nM | IC50 [24]: > 2000 nM | IC50 [25]: > 2000 nM | IC50 [26]: > 2000 nM | IC50 [27]: > 2000 nM | IC50 [28]: > 2000 nM | IC50 [29]: > 2000 nM | IC50 [30]: > 2000 nM | IC50 [31]: > 2000 nM | IC50 [32]: > 2000 nM | IC50 [33]: > 2000 nM | IC50 [34]: > 2000 nM | IC50 [35]: > 2000 nM | IC50 [36]: > 2000 nM | IC50 [37]: > 2000 nM | IC50 [38]: > 2000 nM | IC50 [39]: > 2000 nM | IC50 [40]: > 2000 nM | IC50 [41]: > 2000 nM | IC50 [42]: > 2000 nM | IC50 [44]: > 2000 nM | IC50 [45]: 898 nM | IC50 [46]: > 2000 nM | IC50 [47]: > 2000 nM | IC50 [48]: > 2000 nM | IC50 [49]: > 2000 nM | IC50 [50]: > 2000 nM | IC50 [51]: > 2000 nM | IC50 [52]: > 2000 nM | IC50 [53]: > 2000 nM | IC50 [54]: > 2000 nM | IC50 [55]: > 2000 nM | IC50 [56]: > 2000 nM | IC50 [57]: > 2000 nM | IC50 [58]: > 2000 nM | IC50 [59]: > 2000 nM
